Results from ChEMBL document CHEMBL3272053, “(exo, exo)-2-Aryltropane-3-carboxylic esters, hypoglycemic agents with accompanying analgesic activity” (J Med Chem, 1978).
Calls of active or inactive are those of the source. The rule behind the calls is not given here.

Assays:
[1] = system: Rattus norvegicus; assay: Hypoglycemic activity in glucose loaded Sprague-Dawley rat assessed as reduction of blood glucose level at 100 mg/kg, po after 30 mins relative to control; format: functional; design: scale not given: the % may be the effect or the level left
[2] = system: Rattus norvegicus; assay: Hypoglycemic activity in glucose loaded Sprague-Dawley rat assessed as reduction of blood glucose level at 100 mg/kg, po measured at 1 hr; format: functional, organism-based; design: dose 100 mg/kg
[3] = system: Rattus norvegicus; assay: Hypoglycemic activity in glucose loaded Sprague-Dawley rat assessed as reduction of blood glucose level at 100 mg/kg, po measured at 1.5 to 2 hrs; format: functional, organism-based; design: dose 100 mg/kg
[4] = system: Rattus norvegicus; assay: Hypoglycemic activity in Sprague-Dawley rat assessed as reduction of blood glucose level at 9 mg/kg, po measured within 15 mins by glucagon-impaired glucose disposal test relative to control; format: functional; design: scale not given: the % may be the effect or the level left
[5] = system: Rattus norvegicus; assay: Narcotic analgesic activity in fasted Sprague-Dawley rat at 35 mg/kg, po measured at 15 mins by D'Amour-Smith tail-flick test relative to control; format: functional
[6] = system: Rattus norvegicus; assay: Narcotic analgesic activity in fasted Sprague-Dawley rat at 35 mg/kg, po measured at 30 mins by D'Amour-Smith tail-flick test relative to control; format: functional
[7] = system: Rattus norvegicus; assay: Narcotic analgesic activity in fasted Sprague-Dawley rat at 35 mg/kg, po measured at 60 mins by D'Amour-Smith tail-flick test relative to control; format: functional
[8] = system: Mus musculus; assay: Analgesic activity in sc dosed Swiss-Webster mouse assessed as reduction of acetylcholine-induced writhing; format: functional; details: Mus musculus, Swiss-Webster, sc; read-out: ED50
[9] = system: Rattus norvegicus; assay: Toxicity in Sprague-Dawley rat assessed as convulsion at 35 mg/kg, po; format: organism-based; design: dose 35 mg/kg, route oral; details: in vivo
[10] = system: Mus musculus; assay: Toxicity in Swiss-Webster mouse assessed as mortality at 75 mg/kg, sc; format: organism-based; design: dose 75 mg/kg, route subcutaneous; details: in vivo
[11] = system: Rattus norvegicus; assay: Hypoglycemic activity in Sprague-Dawley rat assessed as reduction of blood glucose level at 9 mg/kg, po by glucagon-impaired glucose disposal test in presence of microsomal enzyme inhibitor SKF 525-A; format: functional, organism-based; design: dose 9 mg/kg
[12] = system: Rattus norvegicus; assay: Hypoglycemic activity in Sprague-Dawley rat assessed as reduction of blood glucose level at 9 mg/kg, po measured < 90 mins by glucagon-impaired glucose disposal test; format: functional, organism-based; design: dose 9 mg/kg
[13] = system: Rattus norvegicus; assay: Hypoglycemic activity in Sprague-Dawley rat assessed as reduction of blood glucose level at 100 mg/kg, po by glucagon-impaired glucose disposal test relative to control; format: functional; design: scale not given: the % may be the effect or the level left
[14] = system: Rattus norvegicus; assay: Narcotic analgesic activity in fasted Sprague-Dawley rat at 480 mg/kg, po measured at 60 mins by D'Amour-Smith tail-flick test relative to control; format: functional
[15] = system: Mus musculus; assay: Analgesic activity in po dosed Swiss-Webster mouse assessed as reduction of acetylcholine-induced writhing; format: functional
[16] = system: Rattus norvegicus; assay: Toxicity in Sprague-Dawley rat assessed as tremor at 480 mg/kg, po; format: organism-based; design: dose 480 mg/kg, route oral; details: in vivo
[17] = system: Rattus norvegicus; assay: Toxicity in Sprague-Dawley rat assessed as hyperexcitability at 480 mg/kg, po; format: organism-based; design: dose 480 mg/kg, route oral; details: in vivo
[18] = system: Rattus norvegicus; assay: Narcotic analgesic activity in po dosed fasted Sprague-Dawley rat measured at 60 mins by D'Amour-Smith tail-flick test; format: functional; details: Rattus norvegicus, Sprague-Dawley, Tail, po, 1 h; read-out: ED50
[19] = system: Rattus norvegicus; assay: Analgesic activity in po dosed rat assessed as reduction of intraarterial bradykinin-induced pain response measured up to 120 mins; format: functional; details: 2 h
[20] = system: Rattus norvegicus; assay: Hypoglycemic activity in glucose/glycogen loaded Sprague-Dawley rat assessed as reduction of blood glucose level at 87 mg/kg, po; format: functional, organism-based; design: dose 87 mg/kg
[21] = system: Rattus norvegicus; assay: Hypoglycemic activity in glucose loaded Sprague-Dawley rat assessed as reduction of blood glucose level at 84 mg/kg, po relative to control; format: functional; design: scale not given: the % may be the effect or the level left
[22] = system: Rattus norvegicus; assay: Hypoglycemic activity in Sprague-Dawley rat assessed as reduction of blood glucose level at 87 mg/kg, po by glucagon-impaired glucose disposal test in presence of microsomal enzyme inhibitor SKF 525-A; format: functional, organism-based; design: dose 87 mg/kg
[23] = system: Rattus norvegicus; assay: Toxicity in Sprague-Dawley rat assessed as hyperexcitability at 120 mg/kg, po; format: organism-based; design: dose 120 mg/kg, route oral; details: in vivo
[24] = system: Rattus norvegicus; assay: Toxicity in Sprague-Dawley rat assessed as tremor at 120 mg/kg, po; format: organism-based; design: dose 120 mg/kg, route oral; details: in vivo
[25] = system: Rattus norvegicus; assay: Narcotic analgesic activity in fasted Sprague-Dawley rat at 120 mg/kg, po measured at 15 mins by D'Amour-Smith tail-flick test relative to control; format: functional
[26] = system: Rattus norvegicus; assay: Hypoglycemic activity in Sprague-Dawley rat assessed as reduction of blood glucose level at 87 mg/kg, po by glucagon-impaired glucose disposal test relative to control; format: functional; design: scale not given: the % may be the effect or the level left

For `COC(=O)[C@H]1C[C@H]2CC[C@@H]3[C@H]1c1cc(O)ccc1CN23`, the Activity [1] was 33%, the Activity [2] was “inactive” and the Activity [3] was “inactive”.

Molecule `COC(=O)[C@H]1C[C@H]2CC[C@@H]3[C@H]1c1sccc1CN23.Cl` has an Activity [4] of 43%, an Activity [5] of 74% and an Activity [6] of 14%. The Activity [7] was 12%, the ED50 [8] was 1.5 mg/kg and the Activity [9] was “Toxic”. For the same molecule, the Activity [10] was “Toxic”, the Activity [11] was “Active” and the Activity [12] was “inactive”.

For `COC(=O)[C@H]1C[C@H]2CC[C@H]([C@H]1c1ccccc1)N2Cc1ccccc1`, the Activity [13] was 42%, the Activity [14] was 60% and the ED50 [15] was 21 mg/kg. The Activity [16] was “Toxic” and the Activity [17] was “Toxic”.

Molecule `COC(=O)[C@H]1CCCN(C)[C@H]1c1cccs1` (relative stereo) has an ED50 [18] of 112 mg/kg, an ED50 [8] of 3.8 mg/kg and an ED50 [15] of 11 mg/kg. The ED50 [19] was 111 mg/kg and the Activity [20] was “inactive”.

With `COC(=O)[C@H]1C[C@H]2CC[C@H]([C@H]1C)N2C.Cl` the Activity [21] was <20%.

`COC(=O)[C@H]1C[C@H]2CC[C@@H](N2)[C@H]1c1ccccc1.Cl` was tested, and the ED50 [8] was 4 mg/kg, the Activity [22] was “Active” and the Activity [23] was “Toxic”. The Activity [24] was “Toxic”, the Activity [25] was 69% and the Activity [26] was 31%.
